In patent publication US20250311727A1, “SUBSTITUTED 2-AMINOAZINES AND SALTS THEREOF, AND USE THEREOF AS HERBICIDAL ACTIVE SUBSTANCES” (BAYER AKTIENGESELLSCHAFT, priority 2022, published 2025):

Experiments:
Format in all cases: in vivo
Abutilon theophrasti [1] = assay: Post-emergence herbicidal efficacy at 80 g/ha, ABUTH; conditions: rated visually after about 3 weeks vs untreated controls, 100% = plants have died
Excerpt: (§1) Unwanted plants/weeds: • ABUTH: Abutilon theophrasti • ALOMY: Alopecurus myosuroides • AMARE: Amaranthus retroflexus • DIGSA: Digitaria sanguinalis • ECHCG: Echinochloa crus-galli • KCHSC: Kochia scoparia • LOLRI: Lolium rigidum • MATIN: Matricaria inodora • POAAN: Poa annua • POLCO: Polygonum convolvulus • SETVI: Setaria viridis • STEME: Stellaria media • VERPE: Veronica persica • VIOTR: Viola tricolor A. Post-Emergence Herbicidal Efficacy at 320 g/ha
(§2) Seeds of monocotyledonous and dicotyledonous weeds and crop plants were placed in sandy loam in plastic or organic planting pots, covered with soil and cultivated in a greenhouse under controlled growth conditions. 2 to 3 weeks after sowing, the test plants were treated at the one-leaf stage. The compounds of the invention, formulated in the form of wettable powders (WP) or as emulsion concentrates (EC), were then sprayed onto the green parts of the plants as aqueous suspension or emulsion with addition of 0.5% additive at a water application rate of 600 l/ha (converted). After the test plants had been kept in the greenhouse under optimum growth conditions for about 3 weeks, the activity of the preparations was rated visually in comparison to untreated controls. For example, 100% activity=the plants have died, 0% activity=like control plants.
(§3) Tables B1 to B11 below show the effects of selected compounds of the general formula (I) according to Table 1 on various harmful plants and an application rate corresponding to 80 g/ha, which were obtained by the experimental procedure mentioned above.

Amaranthus retroflexus [2] = assay: Post-emergence herbicidal efficacy at 80 g/ha, AMARE; conditions: rated visually after about 3 weeks vs untreated controls, 100% = plants have died
In short: (§4)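 Weeds grown in sandy loam under greenhouse conditions and sprayed post-emergence at the one-leaf stage (2–3 weeks after sowing) with WP or EC formulations plus 0.5% additive, 600 l/ha water. Activity scored visually about 3 weeks later versus untreated controls (0% = like control, 100% = plants dead).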

Digitaria sanguinalis [3] = assay: Post-emergence herbicidal efficacy at 80 g/ha, DIGSA; conditions: rated visually after about 3 weeks vs untreated controls, 100% = plants have died
Excerpt: as §1, §2, §3

Echinochloa crus-galli [4] = assay: Post-emergence herbicidal efficacy at 80 g/ha, ECHCG; conditions: rated visually after about 3 weeks vs untreated controls, 100% = plants have died
Excerpt: as §1, §2, §3

Kochia scoparia [5] = assay: Post-emergence herbicidal efficacy at 80 g/ha, KCHSC; conditions: rated visually after about 3 weeks vs untreated controls, 100% = plants have died
In short: as §4

PHBPU = assay: Post-emergence herbicidal efficacy at 80 g/ha, PHBPU; conditions: rated visually after about 3 weeks vs untreated controls, 100% = plants have died
Procedure: as §2, with “plants. Tables B1 to B11 below show the effects of selected compounds of the general formula (I) according to Table 1 on various harmful plants and an application rate corresponding to 80 g/ha, which were obtained by the experimental procedure mentioned above.” for “plants.”

Polygonum convolvulus [6] = assay: Post-emergence herbicidal efficacy at 80 g/ha, POLCO; conditions: rated visually after about 3 weeks vs untreated controls, 100% = plants have died
Excerpt: as §1
as §2, with “plants. […]” for “plants.”

Setaria viridis [7] = assay: Post-emergence herbicidal efficacy at 80 g/ha, SETVI; conditions: rated visually after about 3 weeks vs untreated controls, 100% = plants have died
Excerpt: as §1, §2, §3

Veronica persica [8] = assay: Post-emergence herbicidal efficacy at 80 g/ha, VERPE; conditions: rated visually after about 3 weeks vs untreated controls, 100% = plants have died
In short: as §4

Viola tricolor [9] = assay: Post-emergence herbicidal efficacy at 80 g/ha, VIOTR; conditions: rated visually after about 3 weeks vs untreated controls, 100% = plants have died
In short: as §4

Abutilon theophrasti [10] = assay: Pre-emergence herbicide efficacy at 80 g/ha, ABUTH; conditions: scored visually after about 3 weeks vs untreated controls, 100% = plants have died
Excerpt: as §1
(§5) Seeds of monocotyledonous and dicotyledonous weed plants and crop plants were placed in plastic or organic planting pots and covered with soil. The compounds of the invention, formulated in the form of wettable powders (WP) or as emulsion concentrates (EC), were then applied to the surface of the covering soil as aqueous suspension or emulsion with addition of 0.5% additive at a water application rate equivalent to 600 l/ha. After the treatment, the pots were placed in a greenhouse and kept under good growth conditions for the test plants. After about 3 weeks, the efficacy of the preparations was scored visually in comparison with untreated controls as percentages. For example, 100% activity=the plants have died, 0% activity=like control plants.
(§6) Tables D1 to D12 below show the effects of selected compounds of the general formula (I) according to Table 1 on various harmful plants and an application rate corresponding to 80 g/ha, which were obtained by the experimental procedure mentioned above.

Alopecurus myosuroides = assay: Pre-emergence herbicide efficacy at 80 g/ha, ALOMY; conditions: scored visually after about 3 weeks vs untreated controls, 100% = plants have died
Excerpt: as §1, §5, §6

Amaranthus retroflexus [11] = assay: Pre-emergence herbicide efficacy at 80 g/ha, AMARE; conditions: scored visually after about 3 weeks vs untreated controls, 100% = plants have died
In short: (§7)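 Pre-emergence test: pots sown with weed seeds, then compound (WP or EC) sprayed on the covering soil as aqueous suspension/emulsion with 0.5% additive at 600 l/ha water, here 80 g/ha. Greenhouse growth for about 3 weeks. Efficacy scored visually versus untreated controls, 0% (as control) to 100% (plants died).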

Digitaria sanguinalis [12] = assay: Pre-emergence herbicide efficacy at 80 g/ha, DIGSA; conditions: scored visually after about 3 weeks vs untreated controls, 100% = plants have died
In short: as §7

Echinochloa crus-galli [13] = assay: Pre-emergence herbicide efficacy at 80 g/ha, ECHCG; conditions: scored visually after about 3 weeks vs untreated controls, 100% = plants have died
In short: as §7

Lolium rigidum = assay: Pre-emergence herbicide efficacy at 80 g/ha, LOLRI; conditions: scored visually after about 3 weeks vs untreated controls, 100% = plants have died
Excerpt: as §1
as §5, with “control plants. […]” for “control plants.”

Kochia scoparia [14] = assay: Pre-emergence herbicide efficacy at 80 g/ha, KCHSC; conditions: scored visually after about 3 weeks vs untreated controls, 100% = plants have died
Excerpt: as §1, §5, §6

Matricaria inodora = assay: Pre-emergence herbicide efficacy at 80 g/ha, MATIN; conditions: scored visually after about 3 weeks vs untreated controls, 100% = plants have died
Excerpt: as §1, §5, §6

Polygonum convolvulus [15] = assay: Pre-emergence herbicide efficacy at 80 g/ha, POLCO; conditions: scored visually after about 3 weeks vs untreated controls, 100% = plants have died
In short: as §7

Setaria viridis [16] = assay: Pre-emergence herbicide efficacy at 80 g/ha, SETVI
In short: as §7

Veronica persica [17] = assay: Pre-emergence herbicide efficacy at 80 g/ha, VERPE
In short: as §7

Viola tricolor [18] = assay: Pre-emergence herbicide efficacy at 80 g/ha, VIOTR
In short: as §7

FC(F)c1cc(-c2c(Cl)cccc2Nc2ncc(Cl)cn2)on1 [Example 1-61]
Post-emergence efficacy at 80 g/ha against ABUTH in % (Abutilon theophrasti [1]): 100%
Post-emergence efficacy at 80 g/ha against AMARE in % (Amaranthus retroflexus [2]): 100%
Post-emergence efficacy at 80 g/ha against DIGSA in % (Digitaria sanguinalis [3]): 100%
Post-emergence efficacy at 80 g/ha against ECHCG in % (Echinochloa crus-galli [4]): 100%
Post-emergence efficacy at 80 g/ha against KCHSC in % (Kochia scoparia [5]): 100%
Post-emergence efficacy at 80 g/ha against PHBPU in % (PHBPU): 100%
Post-emergence efficacy at 80 g/ha against POLCO in % (Polygonum convolvulus [6]): 100%
Post-emergence efficacy at 80 g/ha against SETVI in % (Setaria viridis [7]): 100%
Post-emergence efficacy at 80 g/ha against VERPE in % (Veronica persica [8]): 100%
Post-emergence efficacy at 80 g/ha against VIOTR in % (Viola tricolor [9]): 100%
Pre-emergence efficacy at 80 g/ha against ABUTH in % (Abutilon theophrasti [10]): 90%
Pre-emergence efficacy at 80 g/ha against ALOMY in % (Alopecurus myosuroides): 90%
Pre-emergence efficacy at 80 g/ha against AMARE in % (Amaranthus retroflexus [11]): 100%
Pre-emergence efficacy at 80 g/ha against DIGSA in % (Digitaria sanguinalis [12]): 100%
Pre-emergence efficacy at 80 g/ha against ECHCG in % (Echinochloa crus-galli [13]): 100%
Pre-emergence efficacy at 80 g/ha against LOLRI in % (Lolium rigidum): 90%
Pre-emergence efficacy at 80 g/ha against KCHSC in % (Kochia scoparia [14]): 100%
Pre-emergence efficacy at 80 g/ha against MATIN in % (Matricaria inodora): 100%
Pre-emergence efficacy at 80 g/ha against POLCO in % (Polygonum convolvulus [15]): 80%
Pre-emergence efficacy against SETVI (Setaria viridis [16]): 100%
Pre-emergence efficacy against VERPE (Veronica persica [17]): 90%
Pre-emergence efficacy against VIOTR (Viola tricolor [18]): 100%

Fc1cnc(Nc2cccc(Cl)c2-c2cc(C(F)F)no2)nc1 [Example 1-62]
Post-emergence efficacy at 80 g/ha against ABUTH in % (Abutilon theophrasti [1]): 90%
Post-emergence efficacy at 80 g/ha against AMARE in % (Amaranthus retroflexus [2]): 100%
Post-emergence efficacy at 80 g/ha against DIGSA in % (Digitaria sanguinalis [3]): 80%
Post-emergence efficacy at 80 g/ha against ECHCG in % (Echinochloa crus-galli [4]): 80%
Post-emergence efficacy at 80 g/ha against KCHSC in % (Kochia scoparia [5]): 100%
Post-emergence efficacy at 80 g/ha against SETVI in % (Setaria viridis [7]): 100%
Post-emergence efficacy at 80 g/ha against VERPE in % (Veronica persica [8]): 100%
Post-emergence efficacy at 80 g/ha against VIOTR in % (Viola tricolor [9]): 100%
Pre-emergence efficacy at 80 g/ha against ABUTH in % (Abutilon theophrasti [10]): 100%
Pre-emergence efficacy at 80 g/ha against ALOMY in % (Alopecurus myosuroides): 100%
Pre-emergence efficacy at 80 g/ha against AMARE in % (Amaranthus retroflexus [11]): 100%
Pre-emergence efficacy at 80 g/ha against DIGSA in % (Digitaria sanguinalis [12]): 100%
Pre-emergence efficacy at 80 g/ha against ECHCG in % (Echinochloa crus-galli [13]): 100%
Pre-emergence efficacy at 80 g/ha against LOLRI in % (Lolium rigidum): 100%
Pre-emergence efficacy at 80 g/ha against KCHSC in % (Kochia scoparia [14]): 100%
Pre-emergence efficacy at 80 g/ha against POLCO in % (Polygonum convolvulus [15]): 80%
Pre-emergence efficacy against SETVI (Setaria viridis [16]): 100%
Pre-emergence efficacy against VERPE (Veronica persica [17]): 100%
Pre-emergence efficacy against VIOTR (Viola tricolor [18]): 100%
